Experiment in all cases: relative viability (nuclei count vs DMSO), 5 days (fraction); higher = more cells survive
Compound in assay [1]: C(C(=O)C(=O)O)Br [Bromopyruvate] + COc1cc2c(Oc3ccc(NC(=O)C4(C(=O)Nc5ccc(F)cc5)CC4)cc3F)ccnc2cc1OCCCN1CCOCC1 [Foretinib] (partner 0.25 µM)
In short, it runs like this:
(§1)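 Lung cancer cell lines in 1536-well plates got either a single drug or a fixed anchor-drug dose together with five library-drug doses (not always all listed) in √10 steps, by pin tool, on the day after seeding. Nuclei were counted after 5 days, and relative viability is the treated-to-vehicle ratio of nuclei counts. Values are medians of duplicate plates.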

Compound in assay [2]: CC(O)(CS(=O)(=O)c1ccc(F)cc1)C(=O)Nc1ccc(C#N)c(C(F)(F)F)c1 [Bicalutamide] + Cc1cc(Nc2cc(N3CCN(C)CC3)nc(Sc3ccc(NC(=O)C4CC4)cc3)n2)n[nH]1 [Tozasertib] (partner 0.1 µM)
In short, it runs like this:
as §1

Compound in the assay “Bicalutamide + Olaparib”: CC(O)(CS(=O)(=O)c1ccc(F)cc1)C(=O)Nc1ccc(C#N)c(C(F)(F)F)c1 [Bicalutamide] + O=C(c1cc(Cc2n[nH]c(=O)c3ccccc23)ccc1F)N1CCN(C(=O)C2CC2)CC1 [Olaparib] (partner 8 µM)
In short, it runs like this: as §1

Compound in assay [3]: C(C(=O)C(=O)O)Br [Bromopyruvate] + CS(=O)(=O)N1CCN(Cc2cc3nc(-c4cccc5[nH]ncc45)nc(N4CCOCC4)c3s2)CC1 [Pictilisib] (partner 1 µM)
Summed up: as §1

Take NCI-H2342: the relative viability worked out at 1.09 in assay [1] (first compound 1 µM); 1.18 in assay [1] (first compound 3.162 µM); 1.01 in assay [1] (first compound 10 µM); 0.853 in assay [1] (first compound 31.62 µM); 1.04 in assay [1] (first compound 100 µM); 0.496 in assay [2] (first compound 0.08 µM). In addition, the relative viability worked out at 0.564 in assay [2] (first compound 0.253 µM); 0.5 in assay [2] (first compound 0.8 µM); 0.456 in assay [2] (first compound 2.53 µM); 0.524 in the assay with Bicalutamide + Olaparib (first compound 0.08 µM); 0.501 with Bicalutamide + Olaparib (first compound 0.253 µM); 0.491 with Bicalutamide + Olaparib (first compound 0.8 µM). The relative viability with Bicalutamide + Olaparib (first compound 2.53 µM) was found to be 0.44.
Regarding SK-MES-1, the relative viability turned out to be 0.964 in assay [1] (first compound 1 µM); 0.962 in assay [1] (first compound 3.162 µM); 0.938 in assay [1] (first compound 10 µM); 0.75 in assay [1] (first compound 31.62 µM); 1.17 in assay [1] (first compound 100 µM); 0.356 in assay [3] (first compound 1 µM). In addition, the relative viability in assay [3] (first compound 3.162 µM) worked out at 0.32; in assay [3] (first compound 10 µM) it was 0.427; in assay [3] (first compound 31.62 µM), 0.373; in assay [3] (first compound 100 µM), 0.321; in assay [2] (first compound 0.08 µM), 1.08; in assay [2] (first compound 0.253 µM) it was 0.853. The relative viability in assay [2] (first compound 0.8 µM) is 0.867; in assay [2] (first compound 2.53 µM), 0.66; with Bicalutamide + Olaparib (first compound 0.08 µM), 0.825; with Bicalutamide + Olaparib (first compound 0.253 µM) it was 0.711; in the assay with Bicalutamide + Olaparib (first compound 0.8 µM), 0.773; with Bicalutamide + Olaparib (first compound 2.53 µM), 0.561.
Take NCI-H1993: the relative viability in assay [1] (first compound 1 µM) was 0.84; in assay [1] (first compound 3.162 µM), 0.817; in assay [1] (first compound 10 µM) it was 0.939; in assay [1] (first compound 31.62 µM), 0.764; in assay [1] (first compound 100 µM) it was 0.774; in assay [3] (first compound 1 µM), 0.827. Further, the relative viability is 0.729 in assay [3] (first compound 3.162 µM); 0.895 in assay [3] (first compound 10 µM); 0.935 in assay [3] (first compound 31.62 µM); 0.774 in assay [3] (first compound 100 µM); 0.567 in assay [2] (first compound 0.08 µM); 0.581 in assay [2] (first compound 0.253 µM). Further, the relative viability came out at 0.727 in assay [2] (first compound 0.8 µM); 0.629 in assay [2] (first compound 2.53 µM); 1.05 in the assay with Bicalutamide + Olaparib (first compound 0.08 µM); 0.785 with Bicalutamide + Olaparib (first compound 0.253 µM); 1.17 with Bicalutamide + Olaparib (first compound 0.8 µM); 1.01 with Bicalutamide + Olaparib (first compound 2.53 µM).
Turning to HCC-366, the relative viability in assay [1] (first compound 1 µM) is 0.927; in assay [1] (first compound 3.162 µM), 0.976; in assay [1] (first compound 10 µM) it was 0.961; in assay [1] (first compound 31.62 µM), 0.759; in assay [1] (first compound 100 µM), 0.963; in assay [3] (first compound 1 µM), 0.157. Moreover, the relative viability in assay [3] (first compound 3.162 µM) turned out to be 0.208; in assay [3] (first compound 10 µM) it was 0.205; in assay [3] (first compound 31.62 µM), 0.143; in assay [3] (first compound 100 µM), 0.164; in assay [2] (first compound 0.08 µM), 0.133; in assay [2] (first compound 0.253 µM) it was 0.0841. The relative viability was 0.0976 in assay [2] (first compound 0.8 µM); 0.0526 in assay [2] (first compound 2.53 µM); 0.361 in the assay with Bicalutamide + Olaparib (first compound 0.08 µM); 0.323 with Bicalutamide + Olaparib (first compound 0.253 µM); 0.444 in the assay with Bicalutamide + Olaparib (first compound 0.8 µM); 0.286 with Bicalutamide + Olaparib (first compound 2.53 µM).
201T: the relative viability in assay [1] (first compound 1 µM) stood at 1.15; in assay [1] (first compound 3.162 µM), 1.08; in assay [1] (first compound 10 µM), 1.29; in assay [1] (first compound 31.62 µM), 1.21; in assay [1] (first compound 100 µM), 1.29; in assay [3] (first compound 1 µM) it was 0.724. Further, the relative viability in assay [3] (first compound 3.162 µM) was found to be 0.692; in assay [3] (first compound 10 µM) it was 0.626; in assay [3] (first compound 31.62 µM), 0.683; in assay [3] (first compound 100 µM), 0.7; in assay [2] (first compound 0.08 µM) it was 1.01; in assay [2] (first compound 0.253 µM) it was 0.917. Also, the relative viability in assay [2] (first compound 0.8 µM) came out at 0.962; in assay [2] (first compound 2.53 µM), 0.793; in the assay with Bicalutamide + Olaparib (first compound 0.08 µM), 0.881; with Bicalutamide + Olaparib (first compound 0.253 µM), 0.885; with Bicalutamide + Olaparib (first compound 0.8 µM), 0.846; in the assay with Bicalutamide + Olaparib (first compound 2.53 µM), 0.877.
For the cell line HCC-827, the relative viability in assay [1] (first compound 1 µM) was 1.05; in assay [1] (first compound 3.162 µM), 1.02; in assay [1] (first compound 10 µM), 1.02; in assay [1] (first compound 31.62 µM) it was 1.08; in assay [1] (first compound 100 µM), 1.08; in assay [3] (first compound 1 µM), 1.08. Further, the relative viability was 0.909 in assay [3] (first compound 3.162 µM); 1.14 in assay [3] (first compound 10 µM); 1.17 in assay [3] (first compound 31.62 µM); 0.849 in assay [3] (first compound 100 µM); 0.403 in assay [2] (first compound 0.08 µM); 0.341 in assay [2] (first compound 0.253 µM). The relative viability in assay [2] (first compound 0.8 µM) stood at 0.402; in assay [2] (first compound 2.53 µM) it was 0.402; with Bicalutamide + Olaparib (first compound 0.08 µM) it was 0.63; with Bicalutamide + Olaparib (first compound 0.253 µM), 0.548; with Bicalutamide + Olaparib (first compound 0.8 µM), 0.704; in the assay with Bicalutamide + Olaparib (first compound 2.53 µM), 0.6.
On to NCI-H650, for which the relative viability came to 1.04 in assay [1] (first compound 1 µM); 1.03 in assay [1] (first compound 3.162 µM); 1.16 in assay [1] (first compound 10 µM); 1.01 in assay [1] (first compound 31.62 µM); 0.948 in assay [1] (first compound 100 µM); 0.804 in assay [3] (first compound 1 µM). The relative viability in assay [3] (first compound 3.162 µM) came to 0.778; in assay [3] (first compound 10 µM) it was 0.972; in assay [3] (first compound 31.62 µM), 0.92; in assay [3] (first compound 100 µM), 1.01; in assay [2] (first compound 0.08 µM), 0.792; in assay [2] (first compound 0.253 µM), 0.747. Besides, the relative viability is 0.885 in assay [2] (first compound 0.8 µM); 0.653 in assay [2] (first compound 2.53 µM); 0.373 with Bicalutamide + Olaparib (first compound 0.08 µM); 0.395 in the assay with Bicalutamide + Olaparib (first compound 0.253 µM); 0.401 with Bicalutamide + Olaparib (first compound 0.8 µM); 0.396 with Bicalutamide + Olaparib (first compound 2.53 µM).
On to NCI-H2085, for which the relative viability in assay [1] (first compound 1 µM) is 0.865; in assay [1] (first compound 3.162 µM), 1.06; in assay [1] (first compound 10 µM) it was 0.964; in assay [1] (first compound 31.62 µM), 0.779; in assay [1] (first compound 100 µM), 0.465; in assay [3] (first compound 1 µM), 0.429. The relative viability was 0.426 in assay [3] (first compound 3.162 µM); 0.463 in assay [3] (first compound 10 µM); 0.437 in assay [3] (first compound 31.62 µM); 0.498 in assay [3] (first compound 100 µM); 0.913 in assay [2] (first compound 0.08 µM); 0.81 in assay [2] (first compound 0.253 µM). Besides, the relative viability is 0.805 in assay [2] (first compound 0.8 µM); 0.804 in assay [2] (first compound 2.53 µM); 0.758 with Bicalutamide + Olaparib (first compound 0.08 µM); 0.865 with Bicalutamide + Olaparib (first compound 0.253 µM); 0.773 in the assay with Bicalutamide + Olaparib (first compound 0.8 µM); 0.781 in the assay with Bicalutamide + Olaparib (first compound 2.53 µM).
